In patent US12280047B2, “Treatment of aneurysms” (Georgia State Research Foundation, Inc., priority 2017, dated 2025):

Experiments:
Format in all cases: in vivo
[1] = test system: ApoE−/− mice; experiment: Acipimox preventing AngII-induced AAA in aged mice (Example 16); conditions: AngII 1,000 ng/kg/min four weeks
Protocol: To compare the effect of acipimox on treating AngII-induced abdominal aortic aneurysm in young (3 months old) or old (24 months old) mice, male ApoE^−/− mice in the aged mice group were treated with acipimox (0.1% wt) or vehicle control (water) by drinking water for 6 weeks. Four weeks later, mice in both age groups were infused with AngII (1,000 ng/kg/min) or saline (0.9% sodium chloride) by Alzet osmotic pumps for four weeks. AAA incidence and maximal abdominal aorta diameter were examined to evaluate the therapeutic effect of acipimox on AngII-induced AAA in old mice.
To quantify AAA incidence and size, the maximum width of abdominal aorta was measured with Image Pro Plus software (Media Cybernetics). Aneurysm incidence was quantified based on a definition of aneurysm as an external width of the suprarenal aorta that was increased by 50% or greater compared with aortas from saline-infused mice. The average diameter of the normal suprarenal aorta in control mice is 0.705 mm. Therefore, a threshold of 1.06 mm as evidence of aneurysm formation was set. […] After 4-weeks of AngII-infusion, mice where divided into two groups vehicle treated (n=10) or acipimox treated (n=15). Before treatment, the AAA incidence was 20% and 70% in young and old mice, respectively. After six weeks of treatment acipimox, AAA incidence decreased to 25% in the old mice group. […]

[2] = test system: ApoE−/− and ApoE−/−/IDO−/− mice; experiment: AngII-induced AAA formation in ApoE−/− and ApoE−/−/IDO−/− mice; conditions: AngII 1000 ng/min/kg, 4 weeks
From the text: (§1) IDO^−/− and ApoE^−/− mice were obtained from Jackson laboratory (Bar Harbor, Maine) in a C57BL/6 background. IDO^−/− mice were crossed with ApoE^−/− mice to generate ApoE^−/−/IDO^−/− mice. Mice were housed in temperature-controlled cages under a 12-hour light/dark cycle and given free access to water and normal chow. All procedures involving animals were approved by the Institutional Animal Care and Use Committee at the University of Oklahoma Health Sciences Center. […] Circ Res. (2014) 114:480-92.
To quantify AAA incidence and size, the maximum width of abdominal aorta was measure with Image Pro Plus software (Media Cybernetics). We quantified aneurysm incidence based on a definition of aneurysm as an external width of the suprarenal aorta that was increased by 50% or greater compared with aortas from saline-infused mice, as described previously (Sparks A R, et al., Imaging of abdominal aortic aneurysms. Am Fam Physician. (2002) 65:1565-70). The average diameter of the normal suprarenal aorta in control mice is 0.8 mm. […]
AngII-induced mouse AAA formation in the atherosclerotic-susceptible strain (ApoE^−/−) has become the most widely used model. […] To unravel the role of the Trp-Kyn pathway in AAA formation ApoE^−/−/IDO^−/− (double-knockout) mice were generated and the outcome of a 4-week AngII infusion (1000 ng/min/kg) in ApoE^−/− and ApoE^−/−/IDO^−/− mice was determined. […]

[3] = test system: ApoE−/− and ApoE−/−/IDO−/− mice; experiment: Blood pressure and heart rate in AngII-infused mice; conditions: 4 weeks, mean ± s.e.m.; for sBP: AngII 1000 ng/min/kg; for Dbp / HR: AngII
From the text: as §1
Circ Res. (2014) 114:480-92.
AngII-induced mouse AAA formation in the atherosclerotic-susceptible strain (ApoE^−/−) has become the most widely used model. See Qin Z, et al., Angiotensin II-induced TLR4 mediated abdominal aortic aneurysm in apolipoprotein E knockout mice is dependent on STAT3. J Mol Cell Cardiol. (2015) 87:160-70; Rateri D L, et al., Prolonged infusion of angiotensin II in ApoE (−/−) mice promotes macrophage recruitment with continued expansion of abdominal aortic aneurysm. Am J Pathol. (2011) 179:1542-8; Cassis L A, et al., ANG II infusion promotes abdominal aortic aneurysms independent of increased blood pressure in hypercholesterolemic mice. Am J Physiol Heart Circ Physiol. (2009) 296:H1660-5; Daugherty A and Cassis L A. Mouse models of abdominal aortic aneurysms. Arterioscler Thromb Vasc Biol. (2004) 24:429-34; Owens A P, 3rd, Rateri D L, Howatt D A, Moore K J, Tobias P S, Curtiss L K, Lu H, Cassis L A and Daugherty A. MyD88 deficiency attenuates angiotensin II-induced abdominal aortic aneurysm formation independent of signaling through Toll-like receptors 2 and 4. Arterioscler Thromb Vasc Biol. (2011) 31:2813-9. To unravel the role of the Trp-Kyn pathway in AAA formation ApoE^−/−/IDO^−/− (double-knockout) mice were generated and the outcome of a 4-week AngII infusion (1000 ng/min/kg) in ApoE^−/− and ApoE^−/−/IDO^−/− mice was determined. As depicted in Table 1 and 2, AngII infusion increased blood pressure without affecting the heart rate or any metabolic parameters.

With “Angiotensin II (DRVYIHPF; Angiotensin-2; UniProt P01019 25-32, looked up) [AngII, Angiotensin II (Sigma, A9525) infused to induce AAA in mice]” the AAA incidence ([1]; old (24 months old) ApoE−/− mice) was 70%, the AAA incidence ([1]; young (3 months old) ApoE−/− mice) was 20% and the “incidence of AngII-induced AAA” value ([2]; ApoE−/− mice) was 73%. The “incidence of AngII-induced AAA” value ([2]; ApoE−/−/IDO−/− mice) was 15%, the sBP ([3]; Apoe−/− mice) was 149.1 ± 19.5 mm Hg and the sBP ([3]; Apoe−/−/IDO−/− mice) was 155.6 ± 18.4 mm Hg. The Dbp ([3]; Apoe−/− mice) was 112.7 ± 17.3 mmHg, the HR ([3]; Apoe−/− mice) was 471 ± 42 Beats/min and the Dbp ([3]; Apoe−/−/IDO−/− mice) was 119.1 ± 14.9 mmHg. For the same substance, the HR ([3]; Apoe−/−/IDO−/− mice) was 453 ± 43 Beats/min.
